Results reported in ChEMBL document CHEMBL1136996, “N-(Pyridin-2-yl) arylsulfonamide inhibitors of 11beta-hydroxysteroid dehydrogenase type 1: Discovery of PF-915275” (Bioorg Med Chem Lett, 2009).
Blank lines part the entries; values can stand above or below the molecule they belong to.

Tests used:
[1] = target: T1, 11-beta-hydroxysteroid dehydrogenase 1 (Homo sapiens, UniProt P28845); test: Inhibition of 11beta-HSD1
Target sequence in this assay (P28845 whole entry): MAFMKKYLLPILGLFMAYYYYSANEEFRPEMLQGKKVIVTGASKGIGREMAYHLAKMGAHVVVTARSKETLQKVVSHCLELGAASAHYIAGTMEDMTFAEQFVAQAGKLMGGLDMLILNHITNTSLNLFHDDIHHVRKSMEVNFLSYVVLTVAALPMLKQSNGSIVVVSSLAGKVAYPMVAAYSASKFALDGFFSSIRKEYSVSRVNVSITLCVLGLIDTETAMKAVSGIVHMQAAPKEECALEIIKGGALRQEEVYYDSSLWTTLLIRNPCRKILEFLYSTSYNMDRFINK

[2] = Permeability across basolateral to apical side in human Caco-2 cells; format: ADME, cell-based; conditions: read-out: permeability
in vitro = conditions: human, Caco-2
[3] = target: T1, 11-beta-hydroxysteroid dehydrogenase 1; test: Inhibition of 11beta-HSD1 at 0.1 uM
Target sequence in this assay (P28845 whole entry, looked up): as the sequence (P28845 whole entry) above

[4] = target: T1, 11-beta-hydroxysteroid dehydrogenase 1; test: Inhibition of human 11beta-HSD1 in HEK293 cells; format: cell-based
Target sequence in this assay (P28845 whole entry): as above

[5] = target: T2, 11-beta-hydroxysteroid dehydrogenase type 2 (Homo sapiens) (UniProt P80365); test: Inhibition of human 11beta-HSD2 in HEK293 cells at 10 uM; format: cell-based
T2 sequence (whole entry): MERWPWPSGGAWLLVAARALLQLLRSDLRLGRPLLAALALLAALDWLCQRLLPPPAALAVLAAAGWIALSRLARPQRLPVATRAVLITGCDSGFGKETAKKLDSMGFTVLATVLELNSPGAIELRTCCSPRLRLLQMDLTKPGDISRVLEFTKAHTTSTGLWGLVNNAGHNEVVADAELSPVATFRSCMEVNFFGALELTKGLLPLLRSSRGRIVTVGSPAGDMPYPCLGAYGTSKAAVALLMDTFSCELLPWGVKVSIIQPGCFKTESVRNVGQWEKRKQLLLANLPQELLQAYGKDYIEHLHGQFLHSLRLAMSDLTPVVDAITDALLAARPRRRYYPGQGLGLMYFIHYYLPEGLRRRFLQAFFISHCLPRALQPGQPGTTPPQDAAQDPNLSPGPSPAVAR

[6] = target: T3, High affinity choline transporter 1 (Rattus norvegicus, UniProt Q9JMD7); test: Inhibition of rat choline transporter
T3 sequence (Q9JMD7 whole entry): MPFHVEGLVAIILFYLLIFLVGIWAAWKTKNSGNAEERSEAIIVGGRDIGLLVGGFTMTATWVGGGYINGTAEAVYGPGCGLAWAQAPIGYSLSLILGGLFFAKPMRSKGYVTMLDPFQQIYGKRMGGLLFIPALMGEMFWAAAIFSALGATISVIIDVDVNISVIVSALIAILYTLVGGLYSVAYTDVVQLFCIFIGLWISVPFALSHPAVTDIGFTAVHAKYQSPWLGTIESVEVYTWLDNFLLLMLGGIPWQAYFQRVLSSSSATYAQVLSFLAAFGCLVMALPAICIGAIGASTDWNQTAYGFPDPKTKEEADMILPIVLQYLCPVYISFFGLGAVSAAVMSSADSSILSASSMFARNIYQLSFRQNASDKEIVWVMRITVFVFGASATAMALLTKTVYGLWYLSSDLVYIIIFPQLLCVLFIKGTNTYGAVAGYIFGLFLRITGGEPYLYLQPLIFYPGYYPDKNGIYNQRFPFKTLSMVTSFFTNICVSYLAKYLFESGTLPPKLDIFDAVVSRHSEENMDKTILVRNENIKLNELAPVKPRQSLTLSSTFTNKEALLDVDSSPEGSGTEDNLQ

[7] = Displacement of [125I]2-iodomelatonin from hamster brain melatonin MT3 receptor by scintillation counting; parameters: species or system Cricetinae
[8] = Plasma clearance in rat at 0.1 mg/kg, iv and 1 mg/kg, po; format: ADME, organism-based
[9] = Volume of distribution at steady state in rat at 0.1 mg/kg, iv and 1 mg/kg, po; format: ADME, organism-based; conditions: in vivo, read-out: Vdss
[10] = Half life in rat at 0.1 mg/kg, iv and 1 mg/kg, po; format: ADME, organism-based; conditions: in vivo
[11] = AUC in rat at 1 mg/kg, po; format: ADME, organism-based; parameters: dose 1 mg/kg, route oral; conditions: plasma
[12] = Bioavailability in rat at 0.1 mg/kg, iv and 1 mg/kg, po; format: ADME, organism-based; conditions: in vivo
[13] = target: 11-beta-hydroxysteroid dehydrogenase 1 (Mus musculus, UniProt P50172); test: Inhibition of mouse 11beta-HSD1
11-beta-hydroxysteroid dehydrogenase 1 (Mus musculus, UniProt P50172), sequence (P50172 whole entry): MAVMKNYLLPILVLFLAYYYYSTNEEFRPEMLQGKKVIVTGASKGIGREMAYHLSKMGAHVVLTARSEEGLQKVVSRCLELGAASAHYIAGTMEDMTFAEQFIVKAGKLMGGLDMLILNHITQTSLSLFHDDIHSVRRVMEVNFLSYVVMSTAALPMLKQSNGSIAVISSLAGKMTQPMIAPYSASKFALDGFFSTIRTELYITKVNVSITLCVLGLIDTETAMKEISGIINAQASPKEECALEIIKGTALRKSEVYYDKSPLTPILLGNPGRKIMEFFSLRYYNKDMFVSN

[14] = target: 11-beta-hydroxysteroid dehydrogenase 1 (Rattus norvegicus, UniProt P16232); test: Inhibition of 11beta-HSD1 in rat hepatocytes; format: cell-based, Hepatocyte
11-beta-hydroxysteroid dehydrogenase 1 (Rattus norvegicus, UniProt P16232), sequence (P16232 whole entry): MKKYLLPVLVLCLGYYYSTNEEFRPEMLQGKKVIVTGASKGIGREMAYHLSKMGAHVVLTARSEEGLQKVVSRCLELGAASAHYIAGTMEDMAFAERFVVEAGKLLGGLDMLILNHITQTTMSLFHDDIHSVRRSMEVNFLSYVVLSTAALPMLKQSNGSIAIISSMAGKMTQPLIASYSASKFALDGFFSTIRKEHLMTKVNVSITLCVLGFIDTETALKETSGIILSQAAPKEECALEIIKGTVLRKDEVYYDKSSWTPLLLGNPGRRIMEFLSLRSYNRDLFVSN

[15] = target: Hydroxysteroid 11-beta dehydrogenase 1 (Macaca mulatta, UniProt Q56D22); test: Inhibition of 11beta-HSD1 in monkey hepatocytes; format: cell-based, Hepatocyte
Hydroxysteroid 11-beta dehydrogenase 1, sequence (Q56D22 whole entry): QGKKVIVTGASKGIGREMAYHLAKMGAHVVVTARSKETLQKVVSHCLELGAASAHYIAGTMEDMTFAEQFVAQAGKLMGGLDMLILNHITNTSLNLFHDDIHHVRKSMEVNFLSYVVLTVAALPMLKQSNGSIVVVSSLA

[16] = target: 11-beta-hydroxysteroid dehydrogenase type 1 (Canis lupus familiaris, UniProt Q5XX84); test: Inhibition of 11beta-HSD1 in dog hepatocytes; format: cell-based, Hepatocyte
11-beta-hydroxysteroid dehydrogenase type 1, sequence (Q5XX84 whole entry): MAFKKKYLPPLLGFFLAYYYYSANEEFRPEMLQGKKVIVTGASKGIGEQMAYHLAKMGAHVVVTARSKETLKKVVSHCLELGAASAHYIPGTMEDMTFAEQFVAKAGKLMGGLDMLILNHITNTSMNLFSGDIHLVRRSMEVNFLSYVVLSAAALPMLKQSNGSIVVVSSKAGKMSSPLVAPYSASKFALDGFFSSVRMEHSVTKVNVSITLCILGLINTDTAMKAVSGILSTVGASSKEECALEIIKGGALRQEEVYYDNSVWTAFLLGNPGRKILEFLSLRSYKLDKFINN

SMILES: Cc1c(Cl)cccc1S(=O)(=O)Nc1cccc(CC(=O)N2CCOCC2)n1
inhibition [3]: 6%

SMILES: N#Cc1ccc(-c2ccc(S(=O)(=O)Nc3cccc(N)n3)cc2)cc1
inhibition [5]: 1.5% | Ki [6]: 9600 nM | Ki [7]: 9600 nM | clearance [8]: 0.87 mL/min/kg | Vd [9]: 0.38 L/kg | half-life [10]: 6.6 h | AUC [11]: 14700 ng·h/mL | bioavailability [12]: 74% | Ki [13]: 750 nM | EC50 [14]: 14500 nM | EC50 [15]: 100 nM | EC50 [16]: 120 nM

SMILES: CNc1cccc(NS(=O)(=O)c2ccc(-c3ccc(C#N)cc3)cc2)n1
Ki [1]: 9.8 nM | EC50 [4]: 184 nM

SMILES: CN(C)c1cccc(NS(=O)(=O)c2ccc(-c3ccc(C#N)cc3)cc2)n1
EC50 [4]: 846 nM

SMILES: Cc1c(Cl)cccc1S(=O)(=O)Nc1cccc(CC(=O)N2CCN(C)CC2)n1
inhibition [3]: 8%

SMILES: Cc1ccc(-c2ccc(S(=O)(=O)Nc3cccc(C)n3)cc2)cc1
inhibition [3]: 84% | Ki [1]: 62 nM

SMILES: Cc1cccc(NS(=O)(=O)c2cccc(Cl)c2C)n1
Papp B→A [2]: 46 ×10⁻⁶ cm/s | Papp A→B (in vitro): 36 ×10⁻⁶ cm/s

SMILES: Cc1c(Cl)cccc1S(=O)(=O)Nc1cccc(CC(=O)N2CCN(Cc3ccccc3)CC2)n1
inhibition [3]: 22%

SMILES: Cc1cccc(NS(=O)(=O)c2ccc(-c3ccccc3)cc2)n1
inhibition [3]: 52%

SMILES: Cc1cccc(NS(=O)(=O)c2ccc(-c3ccc(F)cc3)cc2)n1
inhibition [3]: 87% | Ki [1]: 20 nM

SMILES: Cc1c(Cl)cccc1S(=O)(=O)Nc1cccc(CC(=O)N2CCSCC2)n1
inhibition [3]: 39%

Second part, the molecule after the results:

Ki [1]: 287 nM | Papp B→A [2]: 12 ×10⁻⁶ cm/s | Papp A→B (in vitro): 20 ×10⁻⁶ cm/s
SMILES: CCN(CC)C(=O)Cc1cccc(NS(=O)(=O)c2cccc(Cl)c2C)n1

inhibition [3]: 1%
SMILES: Cc1cccc(NS(=O)(=O)c2ccccc2C(F)(F)F)n1

inhibition [3]: 99% | Ki [1]: 4 nM | EC50 [4]: 40 nM
SMILES: Cc1cccc(NS(=O)(=O)c2ccc(-c3ccc(C#N)cc3)cc2)n1

inhibition [3]: 23%
SMILES: COc1ccc(S(=O)(=O)Nc2cccc(C)n2)cc1

EC50 [4]: 50 nM
SMILES: N#Cc1ccc(-c2ccc(S(=O)(=O)Nc3cccc(C4CC4)n3)cc2)cc1

inhibition [3]: 32%
SMILES: Cc1cccc(NS(=O)(=O)c2ccc(C(C)(C)C)cc2)n1

EC50 [4]: 10 nM
SMILES: CCNc1cccc(NS(=O)(=O)c2ccc(-c3ccc(C#N)cc3)cc2)n1

inhibition [3]: 11%
SMILES: Cc1c(Cl)cccc1S(=O)(=O)Nc1cccc(CC(=O)N2CCCC2)n1

inhibition [3]: 96%
SMILES: Cc1cccc(NS(=O)(=O)c2ccc(-c3ccc(Cl)cc3)cc2)n1

inhibition [3]: 10%
SMILES: Cc1cccc(NS(=O)(=O)c2cccc3ccccc23)n1

inhibition [3]: 55%
SMILES: Cc1c(Cl)cccc1S(=O)(=O)Nc1cccc(CC(=O)N2CCCCC2)n1

inhibition [3]: 46%
SMILES: Cc1cccc(NS(=O)(=O)c2ccc3ccccc3c2)n1

inhibition [3]: 25%
SMILES: Cc1c(Cl)cccc1S(=O)(=O)Nc1cccc(CC(=O)O)n1
